# Where two headings read alike, the source gives them in different places.
# Legend:
# [1] = background statement, cited from earlier work
# [2] = solubility in water, aqueous DMSO and DMSO; format: physicochemical
# [3] = thermogravimetric analysis (TGA); format: physicochemical
# Procedure: It is known from the TGA curve that the weight loss between 30.5° C. and 150° C. corresponds to the content of crystal water in the chelated molecules.
solubility in DMSO ([2]; DMSO),solubility in about 4% aqueous solution of DMSO ([2]; about 4% aqueous solution of dimethyl sulfoxide),weight loss (crystal water) ([3]; between 30.5° C. and 150° C.) [%],product remained in the final residue (thermal stability) ([3]; final residue) [%],Compound,solubility in a solution of a certain acidity ([1]; acidic solution),solubility in water ([1]; water),"solubility in water ([2]; water, standing for a period of time or heating under water bath of about 45 to 50° C.)"
,,,,"O=S(=O)([O-])[O-].O=S(=O)([O-])[O-].[Ce+4] [Anhydrous cerium sulfate, anhydrous cerium sulfate]",highly soluble,not highly soluble,
insoluble,soluble,11,72.51,cerium sulfate chelated sulfur dioxide,,,"forms an emulsion with water, and can dissolve after standing for a period of time or heating"
